According to publication PMC10865350, “Investigating Polypharmacology through Targeting Known Human Neutrophil Elastase Inhibitors to Proteinase 3” (Journal of Chemical Information and Modeling, 2024):
Where two headings read alike, the source gives them in different places.

Columns and labels:
[1] = test system: human neutrophil elastase (HNE); conditions: Bayer HealthCare AG value; cited from earlier work
[2] = target: T1, HNE (Homo sapiens, UniProt P08246); assay: Enzymatic activity assay, HNE (fluorogenic substrate MeOSuc-AAPV-AMC); type: biochemical; conditions: best enantiomer for compounds 5-8
T1 construct: purchased Athens Research and Technology
T1 sequence (P08246 30-267): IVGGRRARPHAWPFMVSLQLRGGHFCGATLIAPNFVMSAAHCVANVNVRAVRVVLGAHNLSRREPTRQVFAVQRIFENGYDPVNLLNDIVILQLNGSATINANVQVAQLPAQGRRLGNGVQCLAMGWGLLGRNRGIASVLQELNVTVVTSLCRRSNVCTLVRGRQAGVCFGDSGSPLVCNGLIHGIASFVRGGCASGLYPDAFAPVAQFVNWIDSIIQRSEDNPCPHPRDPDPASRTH
Experimental: (§1) II.1 Experimental details
(§2) Chemicals. All chemicals and reagents were of analytical grade. Enzymes, PR3 and HNE, were purchased from Athens Research and Technology.
(§3) India) using published procedures.42 The substrate of HNE (MeOSuc-AAPV-AMC) was supplied by Santa Cruz Biotechnology.
(§4) Activity assay. The enzymatic assays for both PR3 and HNE were conducted according to the method published in (Budnjo et al., 2014) with minor modifications. Briefly, 0.5 nM of enzyme […]
(§5) same buffer containing the inhibitors at various concentrations for 30 min at RT. For PR3, the […]
(§6) 320, emission filter 420) at a final concentration of 5 μM while the HNE reaction was started by […]
(§7) at a final concentration of 5 μM. The fluorescent signal was read every 30 second for 30 min at 30 °C using a fluorescent plate reader (Tecan Spark). The enzymatic activity was measured from the initial linear portion of the slope (fluorescent signal/min) of the time-course curve of reaction progress. The activity data were produced in triplicates. Data were fitted using nonlinear regression analysis (GraphPad Prism v.9) to determine the IC50 values.

[3] = test system: human neutrophil elastase (HNE); assay: HNE inhibition IC50 reported by Bayer HealthCare AG (literature values); type: biochemical; conditions: 298.15 K; calculated from Bayer HealthCare AG IC50 values, Nussbaum et al. refs 9-11
Description: To ensure we had the best models to represent the selected ligands and their interactions with the protein, we explored four different force field combinations for protein and ligands (Table 2) and compared the predicted values to published experimental data for HNE. […] The predicted free energies obtained with MSλD are provided in Table S3 together with the free energies derived from published experimental data.

[4] = target: Proteinase 3 (PR3); assay: Enzymatic activity assay, PR3 (FRET peptide Abz-VADnVADYQ-EDDnp); type: biochemical, human; conditions: selectivity: PR3 IC50 with respect to HNE IC50
Experimental: as §1, §2, §3, §4, §5, §6, §7

[5] = target: T2, Proteinase 3 (PR3) (Homo sapiens, UniProt P24158); assay: as above; type: biochemical; conditions: best enantiomer for compounds 5-8
T2 construct: purchased Athens Research and Technology
T2 sequence (P24158 28-256): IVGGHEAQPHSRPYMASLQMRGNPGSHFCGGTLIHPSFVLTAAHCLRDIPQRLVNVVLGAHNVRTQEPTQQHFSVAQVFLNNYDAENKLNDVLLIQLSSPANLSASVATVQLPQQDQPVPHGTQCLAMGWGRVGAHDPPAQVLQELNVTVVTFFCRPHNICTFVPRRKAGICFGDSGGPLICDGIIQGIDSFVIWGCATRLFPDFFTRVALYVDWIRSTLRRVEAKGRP
Experimental: as §1, §2, §3, §4, §5, §6, §7

[6] = 0.5 nM enzyme, 5 μM substrate, triplicates, read-out: IC50 HNE
[7] = read-out: pIC50 HNE (converted)
[8] = 0.5 nM enzyme, 5 μM FRET peptide, triplicates, read-out: IC50 PR3

For CC1=C(C#N)[C@@H](c2ccc(C#N)cc2)n2nc(NC(=O)C3CCCCC3)nc2N1c1cccc(C(F)(F)F)c1 [Compound 11], the IC50 [1] is given as < 0.3 nM.

For CNc1nc2n(n1)[C@H](c1ccc(C#N)cc1)C(C#N)=C(C)N2c1cccc(C(F)(F)F)c1 [Compound 5], the IC50 [2, 6] is given as 1.3 ± 0.2 nM, the IC50 [2, 7] is given as 1.26 nM and the IC50 [1] is given as 0.59 nM. For the same compound, the “ΔGexpt HNE (ΔG = RTln(IC50))” value [3] was -12.5 kcal/mol, the “IC50 ratio (PR3/HNE)” value [4] was 146 and the IC50 [5, 8] was 190 ± 10 nM.

For COc1nc2n(n1)[C@H](c1ccc(C#N)cc1)C(C#N)=C(C)N2c1cccc(C(F)(F)F)c1 [Compound 4], the IC50 [1] is given as 69 nM and the “ΔGexpt HNE (ΔG = RTln(IC50))” value [3] is given as -9.7 kcal/mol.

In the case of COC(=O)Nc1nc2n(n1)[C@H](c1ccc(C#N)cc1)C(C#N)=C(C)N2c1cccc(C(F)(F)F)c1 [Compound 7], the IC50 [2, 6] is listed as 1.1 ± 0.1 nM, the IC50 [2, 7] is listed as 1.26 nM and the IC50 [1] is listed as 0.17 nM. For the same compound, the “ΔGexpt HNE (ΔG = RTln(IC50))” value [3] was -13.3 kcal/mol, the “IC50 ratio (PR3/HNE)” value [4] was 19 and the IC50 ([5]; read-out: pIC50 PR3 (converted)) was 20 nM.

For CC1=C(C#N)[C@@H](c2ccc(C#N)cc2)n2nc(NC(=O)C3CC3)nc2N1c1cccc(C(F)(F)F)c1 [Compound 6], the IC50 [2, 6] is listed as 0.6 nM, the IC50 [2, 7] is listed as 0.794 nM and the IC50 [1] is listed as 0.35 nM. The “ΔGexpt HNE (ΔG = RTln(IC50))” value [3] was -12.8 kcal/mol, the “IC50 ratio (PR3/HNE)” value [4] was 13 and the IC50 [5, 8] was 7.7 ± 0.6 nM.

In the case of CC1=C(C#N)[C@@H](c2ccc(C#N)cc2)n2ncnc2N1c1cccc(C(F)(F)F)c1 [Compound 2], the IC50 [1] is listed as 15 nM and the “ΔGexpt HNE (ΔG = RTln(IC50))” value [3] is listed as -10.6 kcal/mol.

For CC1=C(C#N)[C@@H](c2ccc(C#N)cc2)n2nc(N)nc2N1c1cccc(C(F)(F)F)c1 [Compound 3], the IC50 [1] is listed as 2.5 nM and the “ΔGexpt HNE (ΔG = RTln(IC50))” value [3] is listed as -11.7 kcal/mol.

For CC1=C(C#N)[C@@H](c2ccc(C#N)cc2)n2nc(NS(C)(=O)=O)nc2N1c1cccc(C(F)(F)F)c1 [Compound 9], the IC50 [1] is listed as 12 nM and the “ΔGexpt HNE (ΔG = RTln(IC50))” value [3] is listed as -10.8 kcal/mol.

For CNC(=O)Nc1nc2n(n1)[C@H](c1ccc(C#N)cc1)C(C#N)=C(C)N2c1cccc(C(F)(F)F)c1 [Compound 8], the IC50 [2, 6] is listed as 0.8 ± 0.1 nM, the IC50 [2, 7] is listed as 0.794 nM and the IC50 [1] is listed as 0.3 nM. For the same compound, the “ΔGexpt HNE (ΔG = RTln(IC50))” value [3] was -12.9 kcal/mol, the “IC50 ratio (PR3/HNE)” value [4] was 74 and the IC50 [5, 8] was 58.9 ± 6 nM.

In the case of CNS(=O)(=O)Nc1nc2n(n1)[C@H](c1ccc(C#N)cc1)C(C#N)=C(C)N2c1cccc(C(F)(F)F)c1 [Compound 10], the IC50 [1] is given as 50 nM and the “ΔGexpt HNE (ΔG = RTln(IC50))” value [3] is given as -9.9 kcal/mol.
